Measurements reported in patent publication US11072806B2, “Gadusol production” (Oregon State University, priority 2018, dated 2021).
Like-named read-outs stand apart in the source and are kept apart here.

Tests used:
[1] = system: rad1Δ yeast mutant; test: UVB irradiation of UVB-sensitive rad1Δ yeast mutant suspended in gadusol-containing supernatant; assay type: cell-based, S. cerevisiae; conditions: cells at 10^7 cells/mL in 9-fold concentrated supernatant, UVB (302 nm), spotted on YEPD, 24 h at 30° C.
Excerpt: (§1) While it would be possible to harvest gadusol from naturally occurring sources, this would not be economical for producing the quantities of gadusol needed for commercially relevant sunscreen products. To overcome this and other problems, the inventors have developed methods and compositions that allow for the high efficiency production of gadusol in microorganism host cells, such as yeast. Expressing the biosynthetic genes for gadusol in microorganisms, such as yeast, provides an opportunity to leverage in-depth knowledge of yeast biochemistry to generate a sustainable process. […] The mutant was cultured in YNB+2% glucose supplemented with leucine and lysine at 30° C. for 2 days. […] In 20 ml cultures (n=3), the recombinant yeast culture produced approximately 20 mg/I of gadusol after 5 days (FIG. 34). […] Large-scale production allows for the use of gadusol in pharmaceuticals, formulations, cosmetics or dietary formulations and products. By way of example, formulations may include pills/capsules, creams, lotions, or the like. In embodiments, the present disclosure provides for a synthetic gadusol having UV-protective activity. […] Cells were then irradiated with UVB and spotted in 3 μl aliquots (n=4) onto YEPD plates which were incubated at 30° C. for 24 h. […]

[2] = system: wild-type RAD1 strain (S288c); test: UVB irradiation of wild-type (RAD1) yeast strain suspended in gadusol-containing supernatant; assay type: cell-based, S. cerevisiae; conditions: higher doses of UVB; cells in 9-fold concentrated supernatant
Excerpt: as §1

[3] = cited from earlier work; for λmax: enol form at lower pH, enolate form at neutral and basic pH
[4] = in vitro; cited from earlier work
[5] = Arbeloa et al. 2011, at respective absorbance maxima

Structure (SMILES)	UVB sensitivity of rad1Δ yeast mutant [1]	UVB tolerance of wild-type (RAD1) strain [2]	extinction coefficient [3, 5]	λmax ([3]; Plack et al. 1981) [nm]	extinction coefficient ([3]; pH 7 in 50 mM phosphate, Plack et al. 1981)	antioxidant activity [4]	quantum yield of photodecomposition relative to gadusol ([3]; Arbeloa et al. 2011) [times]	photostability ([3]; compared to gadusol)
COC1=C(O)CC(O)(CO)C(O)C1=O (stereo not shown) [gadusol, 3,5,6-trihydroxy-5-hydroxymethyl-2-methoxycyclohex-2-en-1-one]	suppresses the UVB sensitivity	increases UVB tolerance	12,400 M^−1 cm^−1	269	21,800 M^−1 cm^−1	exhibit antioxidant activity in vitro		
COC1=C(O)CC(O)(CO)C(O)C1=O (stereo not shown) [gadusolate]			21,800 M^−1 cm^−1	296			260	more photostable
